From PubChem BioAssay AID1259408 (Genetic Toxicology Data Bank (GENE-TOX), 2018)
Calls of active or inactive are those of the source. How the calls were made is not given here.

System: GENE-TOX genotoxicity assays, various organisms and cells
Test: GENE-TOX mutagenicity studies
Details: for call: Assay Type: In vivo carcinogenicity studies
[1] = Species/Cell Type: Bacillus subtilis (H17 vs M45T), Assay Type: Rec-assay, spot test, DNA effects (bacterial DNA repair), Assay Code: REXT, Evaluation Type: Evaluation A (Pre-1980)
[2] = Species/Cell Type: Mammalian polychromatic erythrocytes, Assay Type: Micronucleus test, chromosome aberrations, Assay Code: MNTT, Evaluation Type: Evaluation B (Post-1980)
[3] = Species/Cell Type: Saccharomyces cerevisiae, Assay Type: Mitotic recombination or gene conversion, Assay Code: YEC-, Evaluation Type: Evaluation A (Pre-1980)
[4] = Species/Cell Type: Salmonella typhimurium (one or more of the five standard strains: TA98, TA100, TA1535, TA1537, and TA1538), Assay Type: Histidine reverse gene mutation, Ames assay, Assay Code: SAL-, Evaluation Type: Evaluation A (Pre-1980)
[5] = Species/Cell Type: Drosophila melanogaster, Assay Type: Sex-linked recessive lethal gene mutation, Assay Code: SRLT, Evaluation Type: Evaluation A (Pre-1980)
[6] = Species/Cell Type: Nonhuman, Assay Type: Chromosome aberrations in vitro, Assay Code: CY&+, Evaluation Type: Evaluation A (Pre-1980)
[7] = Species/Cell Type: Human lymphocytes, Assay Type: Sister-chromatid exchange (SCE) in vitro, Assay Code: SCL+D, Dose Response: With dose response, Evaluation Type: Evaluation B (Post-1980)
[8] = Species/Cell Type: Human, Assay Type: Sister-chromatid exchange (SCE) in vitro, Assay Code: SC1+D, Dose Response: With dose response, Evaluation Type: Evaluation B (Post-1980)
[9] = Species/Cell Type: Drosophila melanogaster, Sex: Male, Assay Type: Heritable translocation test, chromosome aberrations, Assay Code: DHTT, Evaluation Type: Evaluation A (Pre-1980)
[10] = Species/Cell Type: Escherichia coli polA (W3119 vs P3478), Assay Type: Rec-assay, DNA effects (bacterial DNA repair), Assay Code: RE1T, Evaluation Type: Evaluation A (Pre-1980)
[11] = Species/Cell Type: Nonhuman, Assay Code: CCG+, Evaluation Type: Evaluation A (Pre-1980)
[12] = Species/Cell Type: Salmonella typhimurium (one or more of the five standard strains: TA98, TA100, TA1535, TA1537, and TA1538), Assay Type: Histidine reverse gene mutation, Ames assay, Assay Code: SAL+, Evaluation Type: Evaluation A (Pre-1980)
[13] = Species/Cell Type: Bacillus subtilis (H17 vs M45), Assay Type: Rec-assay, spot test, DNA effects (bacterial DNA repair), Assay Code: REW+, Evaluation Type: Evaluation A (Pre-1980)
[14] = Species/Cell Type: Salmonella typhimurium (one or more of the five standard strains: TA98, TA100, TA1535, TA1537, and TA1538), Assay Type: Histidine reverse gene mutation, Ames assay, Assay Code: SALT, Evaluation Type: Evaluation A (Pre-1980)
[15] = Species/Cell Type: Mammalian polychromatic erythrocytes, Assay Type: Micronucleus test, chromosome aberrations, Assay Code: MNT-, Evaluation Type: Evaluation B (Post-1980)

NC(=S)Nc1ccccc1
call (Species/Cell Type: Nonhuman, Assay Code: CCG-L, Evaluation Type: Evaluation A (Pre-1980)): inactive; negative

O=C(O)C1=NN(c2ccc(S(=O)(=O)O)cc2)C(=O)C1N=Nc1ccc(S(=O)(=O)O)cc1 (centres undefined)
mutagenic call [1]: no conclusion
mutagenic call (Species/Cell Type: Fischer rat embryo (RLV/1706) cells, Assay Type: Cell transformation, viral enhanced, Assay Code: CTR-, Evaluation Type: Evaluation A (Pre-1980)): inactive; negative
mutagenic call [2]: no conclusion
mutagenic call [3]: inactive; negative
mutagenic call [4]: inactive; negative

C/C=C1/C[C@@H](C)[C@](O)(CO)C(=O)OCC2=CC[N+]3([O-])CC[C@@H](OC1=O)[C@@H]23 (some centres undefined)
mutagenic call [5]: no conclusion

CN(C)c1ccc(/C=C/c2ccccc2)cc1
mutagenic call [5]: no conclusion

Clc1ccc(C(c2ccccc2Cl)C(Cl)Cl)cc1 (centres undefined)
mutagenic call [6]: active; positive

COCCOC(=O)c1ccccc1C(=O)OCCOC
mutagenic call (Species/Cell Type: Rodents, Sex: Male, Assay Type: Dominant lethal test, Assay Code: DLTT, Evaluation Type: Evaluation A (Pre-1980)): no conclusion

Cc1ncc(COP(=O)(O)O)c(C)c1O
mutagenic call [7]: active; positive
mutagenic call [8]: active; positive

N[C@@H](Cc1ccc(N(CCCl)CCCl)cc1)C(=O)O
mutagenic call (Species/Cell Type: Drosophila melanogaster, Assay Type: Sex-linked recessive lethal gene mutation, Assay Code: SRL+, Evaluation Type: Evaluation A (Pre-1980)): active; positive
mutagenic call [9]: no conclusion
mutagenic call (Species/Cell Type: Escherichia coli polA (W3110 vs P3478), Assay Type: Rec-assay, DNA effects (bacterial DNA repair), Assay Code: RE2+, Evaluation Type: Evaluation A (Pre-1980)): active; positive
mutagenic call [10]: no conclusion
mutagenic call (Species/Cell Type: Human cell culture, Assay Type: Chromosome aberrations in vitro, Assay Code: CYZ+, Evaluation Type: Evaluation A (Pre-1980)): active; positive
mutagenic call (Species/Cell Type: Human lymphocytes, Assay Type: Sister-chromatid exchange (SCE) in vitro, Assay Code: SCL+, Evaluation Type: Evaluation A (Pre-1980)): active; positive
mutagenic call [7]: active; positive
mutagenic call (Species/Cell Type: Human lymphocytes, Assay Type: Sister-chromatid exchange (SCE) in vivo, Assay Code: SCY+, Evaluation Type: Evaluation B (Post-1980)): active; positive
mutagenic call [8]: active; positive
mutagenic call (Species/Cell Type: Mouse (C3H/10T1/2) cells, Assay Type: Cell transformation, Assay Code: CTH+, Evaluation Type: Evaluation A (Pre-1980)): active; positive
mutagenic call [6]: active; positive
call [11]: active; positive
mutagenic call (Species/Cell Type: Nonhuman, Assay Type: Sister-chromatid exchange (SCE) in vitro, Assay Code: SC2+D, Dose Response: With dose response, Evaluation Type: Evaluation A (Pre-1980)): active; positive
mutagenic call [12]: active; positive

CCC(CC)c1cccc(OC(=O)N(C)N=O)c1
mutagenic call [12]: active; positive

CCCCBr
mutagenic call [10]: no conclusion

CCC[C@@H]1C[C@@H](C(=O)N[C@@H]([C@H]2O[C@H](SC)[C@H](O)[C@@H](O)[C@H]2O)[C@@H](C)O)N(C)C1
mutagenic call [1]: no conclusion

CCC(C)c1cc([N+](=O)[O-])cc([N+](=O)[O-])c1O (centres undefined)
mutagenic call [13]: active; positive
mutagenic call [5]: no conclusion
mutagenic call (Species/Cell Type: Escherichia coli WP2 UVRA, Assay Type: Tryptophan reverse gene mutation, Assay Code: WPU-*, Activation: With metabolic activation, Evaluation Type: Evaluation A (Pre-1980)): inactive; negative
mutagenic call (Species/Cell Type: Escherichia coli polA (W3119 vs P3478), Assay Type: Rec-assay, DNA effects (bacterial DNA repair), Assay Code: RE1+, Evaluation Type: Evaluation A (Pre-1980)): active; positive
mutagenic call (Species/Cell Type: Human diploid fibroblasts, Assay Type: Unscheduled DNA synthesis (UDS) in vitro, DNA effects, Assay Code: UDH-, Evaluation Type: Evaluation A (Pre-1980)): inactive; negative
mutagenic call (Species/Cell Type: Saccharomyces cerevisiae, Assay Type: Mitotic recombination or gene conversion, Assay Code: YEC+, Evaluation Type: Evaluation A (Pre-1980)): active; positive
mutagenic call (Species/Cell Type: Saccharomyces cerevisiae, Assay Type: Mitotic recombination or gene conversion, Assay Code: YEH-, Evaluation Type: Evaluation A (Pre-1980)): inactive; negative
mutagenic call [14]: no conclusion

CNC(=O)Oc1ccc(C)c(C)c1
mutagenic call (Species/Cell Type: Bacillus subtilis (H17 vs M45T), Assay Type: Rec-assay, spot test, DNA effects (bacterial DNA repair), Assay Code: REX-, Evaluation Type: Evaluation A (Pre-1980)): inactive; negative
mutagenic call (Species/Cell Type: Escherichia coli WP2, Assay Type: Tryptophan reverse gene mutation, Assay Code: WP2-, Evaluation Type: Evaluation A (Pre-1980)): inactive; negative

C[C@H](CCC(=O)O)[C@H]1CC[C@H]2[C@@H]3CC[C@@H]4C[C@H](OS(=O)(=O)O)CC[C@]4(C)[C@H]3CC[C@]12C
mutagenic call (Species/Cell Type: Syrian hamster embryo (SHE) cells, Assay Type: Cell transformation, clonal assay, Assay Code: CTC-, Evaluation Type: Evaluation A (Pre-1980)): inactive; negative

CC(=O)N(O)c1ccc(/C=C\c2ccccc2)cc1
mutagenic call (Species/Cell Type: Human diploid fibroblasts, Assay Type: Unscheduled DNA synthesis (UDS) in vitro, DNA effects, Assay Code: UDH+, Evaluation Type: Evaluation A (Pre-1980)): active; positive
call [11]: active; positive

CC[C@@]1(O)C[C@H](O[C@H]2C[C@H](NC)[C@H](O[C@H]3C[C@H](O)[C@H](O[C@H]4CCC(=O)[C@H](C)O4)[C@H](C)O3)[C@H](C)O2)c2c(cc3c(c2O)C(=O)c2c(O)cccc2C3=O)[C@H]1C(=O)OC
mutagenic call [14]: no conclusion

Nc1ccc2nc[nH]c2c1
mutagenic call (Species/Cell Type: Aspergillus nidulans, Assay Type: Aneuploidy, chromosome aberrations, Assay Code: ASN-, Evaluation Type: Evaluation A (Pre-1980)): inactive; negative

Cc1cc2c3c(ccc2c2ccccc12)C(=O)CC3
mutagenic call [14]: no conclusion

O=NN(CCCCO)c1ccccc1
mutagenic call [14]: no conclusion

Cc1cc(=O)[nH]c(=S)[nH]1
call [11]: active; positive

CN[C@@H]1[C@H](O[C@H]2[C@H](O[C@H]3[C@H](O)[C@@H](O)[C@H](N=C(N)N)[C@@H](O)[C@@H]3N=C(N)N)O[C@@H](C)[C@]2(O)C=O)O[C@@H](CO)[C@H](O)[C@H]1O
mutagenic call [1]: no conclusion
mutagenic call [5]: no conclusion
mutagenic call (Species/Cell Type: Escherichia coli polA (W3119 vs P3478), Assay Type: Rec-assay, DNA effects (bacterial DNA repair), Assay Code: RE1-, Evaluation Type: Evaluation A (Pre-1980)): inactive; negative
mutagenic call (Species/Cell Type: Vicia faba, Assay Type: Chromosome aberrations, Assay Code: VIC+, Evaluation Type: Evaluation A (Pre-1980)): active; positive

O=NN(CCO)CCO
mutagenic call [2]: no conclusion
call [11]: active; positive

COc1cc([N+](=O)[O-])c2ncccc2c1
mutagenic call [12]: active; positive

O=S(O)CO
mutagenic call [9]: no conclusion

O=P(OCCCl)(OCCCl)OCCCl
mutagenic call (Species/Cell Type: Mammalian polychromatic erythrocytes, Assay Type: Micronucleus test, chromosome aberrations, Assay Code: MNT+, Evaluation Type: Evaluation B (Post-1980)): active; positive
mutagenic call [4]: inactive; negative

O=[Se]=O
mutagenic call [13]: active; positive
mutagenic call [7]: active; positive
mutagenic call [8]: active; positive
mutagenic call (Species/Cell Type: Nonhuman, Assay Type: Sister-chromatid exchange (SCE) in vitro, Assay Code: SC2-, Evaluation Type: Evaluation B (Post-1980)): inactive; negative

COc1cc2c(c3oc(=O)c4c(c13)CCOC4=O)C1CC(O)OC1O2 (centres undefined)
mutagenic call [14]: no conclusion

COCCOC(C)=O
mutagenic call [15]: inactive; negative

CN(C)C(=O)Nc1cccc(C(F)(F)F)c1
mutagenic call [3]: inactive; negative

O=c1c2ccc3cccc4c(=O)cc(c5ccccc15)-c2c34
mutagenic call (Species/Cell Type: Chinese hamster lung (V79) cells, Assay Type: Forward gene mutation at the HPRT or ouabain locus, Assay Code: V79-, Evaluation Type: Evaluation A (Pre-1980)): inactive; negative
call (Species/Cell Type: Nonhuman, Assay Code: CCGT, Evaluation Type: Evaluation A (Pre-1980)): no conclusion
mutagenic call [14]: no conclusion

Cc1cccc(C)c1O
mutagenic call (Species/Cell Type: Human lymphocytes, Assay Type: Sister-chromatid exchange (SCE) in vitro, Assay Code: SCLT, Evaluation Type: Evaluation B (Post-1980)): no conclusion

CCC(=O)O
mutagenic call [15]: inactive; negative
